Source: patent publication US8404664B2, “Phosphonated Rifamycins and uses thereof for the prevention and treatment of bone and joint infections” (Targanta Therapeutics, Inc., priority 2005, dated 2013)

Key:
[1] = system: S. aureus (chronic bone infection); assay: Treatment of chronic osteomyelitis caused by S. aureus in rat model; type: in vivo; conditions: for Effect on bacterial titer in bone infection versus the untreated control (figure legends) / Decrease in bacterial titer: prodrug iv at 20 mg/kg parent equivalent; for Effect on bacterial titer in bone infection versus the untreated control (figure legends): regimen of the figure, 4 weeks post-infection; for Decrease in bacterial titer: q24hx4+q4 days, FIGS. 3, 4, 5
Source text: To appraise the ability of bisphosphonated prodrugs of Rifamycin derivatives in treating chronic bone infections, a comparison was made between parent compounds 9, 56, 69, rifabutin and rifalazil (all of which are non-bisphosphonated rifamycin derivatives), and their corresponding bisphosphonated prodrugs, respectively 11, 62, 71, 36 and 81, when used to treat chronically (14- to 28-day) infected rats for 4 weeks of antimicrobial therapy.
In this experiment, rats were infected as described in Example 4 and treated with either 20 mg/kg of body weight of the specific rifamycin derived antibacterial agent subcutaneously, or a molar equivalent dose of its bisphosphonated prodrug intravenously according to the indicated schedule after instillation of bacteria. The standard controls involving no treatment and a subcutaneous treatment of 20 mg/kg of Rifampicin daily were also included. The rats were humanely sacrificed at the conclusion of the experiment and the bacterial titers in the infected tibiae were determined.
This experiment was performed with 20 mg/kg of body weight of rifamycin derivative 9 subcutaneously or with 32 mg/kg of its prodrug 11 (corresponding to 20 mg/kg of 9) intravenously on each of the 20th, 24th, 28th, 32nd, 36th, 40th and […] days (q4 days) after instillation of bacteria. Alternatively, 11 was administered by the same route and at the same dose on the 20th, 21st, 22nd, 23rd, 30th, 37th, 44th and 47th days (q24hx4+q7d) after the instillation of bacteria. The same controls (no treatment or daily subcutaneous 20 mg/kg dose of rifampicin) were used. The rats were humanely sacrificed on the 48th day after the initiation of infection and the bacterial titers in the infected tibiae were determined.
This experiment was also executed in which similarly infected rats were treated with either 20 mg/kg of body weight of rifabutin subcutaneously or with 33.4 mg/kg of its prodrug 36 (corresponding to 20 mg/kg of rifabutin) intravenously on each of the 28th, 32nd, 36th, 40th, 44th, 48th and 52nd days (q4 days) after instillation of bacteria. The same controls (no treatment or daily subcutaneous 20 mg/kg dose of rifampicin) were used. The rats were humanely sacrificed on the 55th day after the initiation of infection and the bacterial titers in the infected tibiae were determined.
This experiment was also executed in which similarly infected rats were treated with either 20 mg/kg of body weight of the rifamycin derived antibacterial agent 56 subcutaneously or with 26 mg/kg of its prodrug 62 (corresponding to 20 mg/kg of 56) intravenously on each of the 27th, 28th, 29th, 30th, 34th, 38th, 42nd, 46th and 50th days (q24hx4+q4 days) after instillation of bacteria. The same controls (no treatment or daily subcutaneous 20 mg/kg dose of rifampicin) were used. The rats were humanely sacrificed on the 51^St day after the initiation of infection and the bacterial titers in the infected tibiae were determined.
This experiment was also executed in which similarly infected rats were treated with either 20 mg/kg of body weight of the rifamycin derived antibacterial agent 69 subcutaneously or with 28 mg/kg of its prodrug 71 (corresponding to 20 mg/kg of 69) intravenously on each of the 18th, 19th, 20th, 21st, 25th, 29th, 33rd, 37th, 41st and 45th days (q24hx4+q4 days) after instillation of bacteria. The same controls (no treatment or daily subcutaneous 20 mg/kg dose of rifampicin) were used. The rats were humanely sacrificed on the 46th day after the initiation of infection and the bacterial titers in the infected tibiae were determined.

[2] = Levels of compound 9 in rat tibiae (microbiological assay); type: in vivo; conditions: for Amount of compound 9 in the uninfected tibiae: dose equivalent to 10 mg/kg of 9 (11: 15.5 mg/kg), three days prior to infection
Description: The experimentally obtained intact uninfected (contra lateral) tibia of the treated and infected rats described above was ground to a powder which was suspended in PBS+2% DMSO. The mixture was centrifuged for 2 min at 13,000 rpm. The amount of compound 9 released in the supernatant was determined by microbiological assay as described previously (Example 3).

[3] = FIG. 1: 9 20 mg/kg sc q4 days, 11 32 mg/kg iv q4d or q24hx4+q7d

| Molecule | Effect on bacterial titer in bone (in words) [1, 3] | Effect on bacterial titer in bone infection versus the untreated control (figure legends) [1] | Level of compound 9 in uninfected tibia ([2]; 11 at 32 mg/kg once weekly for 4 weeks after the infection) | Amount of compound 9 in the uninfected tibiae [2] [µg/g] | Effect on bacterial titer in bone (in words) ([1]; 20 mg/kg sc once daily, 15th to 28th day after infection, FIG. 6) | Decrease in bacterial titer [1] |
| --- | --- | --- | --- | --- | --- | --- |
| 3-(((4-(2-(3-((bisphosphonomethyl)carbamoyl)propanoyloxy)ethyl)-1-piperazinyl)imino)methyl)rifamycin [Compound 11] | not statistically significant | small but not statistically significant effect | 1.28±0.18 μg/g of bone | 0.88 ± 0.11 | – | – |
| CO[C@H]1/C=C/O[C@@]2(C)Oc3c(C)c(O)c4c(O)c(c(/C=N/N5CCN(CCO)CC5)c(O)c4c3C2=O)NC(=O)/C(C)=C\C=C\[C@H](C)[C@H](O)[C@@H](C)[C@@H](O)[C@@H](C)[C@H](OC(C)=O)[C@@H]1C [Compound 9, 3-(((4-(2-hydroxyethyl)-1-piperazinyl)imino)methyl)rifamycin] | completely ineffective | – | – | < 0.17 | smaller but still statistically significant reduction | – |
| CO[C@H]1/C=C/O[C@@]2(C)Oc3c(C)c(O)c4c(=O)c(c5oc6cc(N7CCN(CCOC(=O)CCC(=O)NC(P(=O)(O)O)P(=O)(O)O)CC7)cc(O)c6nc-5c4c3C2=O)NC(=O)/C(C)=C\C=C\[C@H](C)[C@H](O)[C@@H](C)[C@@H](O)[C@@H](C)[C@H](OC(C)=O)[C@@H]1C.N.N [Compound 62] | – | small but statistically significant effect | – | – | – | approximately 1 logarithmic order of magnitude |
| CO[C@H]1/C=C/O[C@@]2(C)Oc3c(C)c(O)c4c(=O)c(c5oc6cc(N7CCN(CCC(=O)c8ccc(OCCCC(P(=O)(O)O)P(=O)(O)O)cc8)CC7)cc(O)c6nc-5c4c3C2=O)NC(=O)/C(C)=C\C=C\[C@H](C)[C@H](O)[C@@H](C)[C@@H](O)[C@@H](C)[C@H](OC(C)=O)[C@@H]1C [Compound 71] | – | small but statistically significant effect | – | – | – | approximately 1 logarithmic order of magnitude |
| CO[C@H]1/C=C/O[C@@]2(C)Oc3c(C)c(O)c4c(=O)c(c5oc6cc(N7CCN(CC(C)C)CC7)cc(O)c6nc-5c4c3C2=O)NC(=O)/C(C)=C\C=C\[C@H](C)[C@H](OC(=O)CCCOC(=O)CCC(=O)NC(P(=O)(O)O)P(=O)(O)O)[C@@H](C)[C@@H](O)[C@@H](C)[C@H](OC(C)=O)[C@@H]1C [Compound 81, 21-O-(4-((3-(bisphosphonomethyl)carbamoyl)propanoyloxy)butanoyl)-1′,4-Didehydro-1-deoxy-1,4-dihydro-3′-hydroxy-5′-[4-(2-methylpropyl)-1-piperazinyl]-1-oxorifamycin VIII] | – | small but statistically significant effect | – | – | – | approximately 1 logarithmic order of magnitude |
